One data set addresses T1, GST-SURF4^49-60 (Homo sapiens, UniProt O15260).
T1 construct: SURF4 (49-60) in the same buffer was in the calorimetric cell; made in house; host or cells: Escherichia coli
As to the kind of experiment: Peptide bead pull down with purified GST-SURF4^49-60 as prey. Conditions: normalized to CW peptides; n = 3, mean ± SD (values only in Fig. 3O); anti-GST immunoblot; HK buffer pH 7.2, 4 °C. Type of data set: binding. The method, then: (§1) Immunoprecipitation was performed as described ([27]). Purification of GST-tagged ShhN^25-49 and GST-tagged SURF4^49-60 was performed as described previously ([54]). GST pull down assays were performed as described previously ([54]). Peptide binding assay was performed as described previously ([27]). […]
in cold KOAc buffer (110 mM KOAc, 2 mM Mg(OAc)2, 20 mM Hepes, pH 7.2). Then cells were permeabilized by 0.03 mg/ml digitonin in KOAc buffer for 6 min at room temperature. The permeabilized cells were washed with cold KOAc buffer. […]
(§2) Binding assays between Myc- tagged SURF4 or Myc-tagged SURF4ED-AA and HA-tagged ShhN or ShhN∆33- 39 were performed by treating HEK293T cells co -transfected with plasmids encoding the indicated proteins in 1 × PBS containing 2 mM dithiobis[succinimidylpropionate] […] After incubation, the beads were washed 4 times with 1 ml of HK buffer (100 mM KCl, 20 mM Hepes, pH 7.2), and the bound material was analyzed by immunoblotting. […]
(§3) After incubation, the beads were washed three times with 500 µ l of HKT buffer and twice with 500 µ l of HK buffer, and the bound material was analyzed by immunoblotting. […]
(§4) reaction mixture for 1 h at 4 °C. The beads were washed four times with 500 µ l of HK buffer and analyzed […]
Label-free quantitative mass spectrometry […]

The subject of data set [1] is packaging of ERGIC53 into transport vesicles. The experiment in a line: In vitro vesicle formation assay, packaging of ERGIC53. Conditions: semi-intact HEK293T cells, rat liver cytosol, GTP, ATPrS, 0.5 µg Sar1A (H79G). Type of data set: cell-based. The method, then: (§5) To analyze whether the CW motif is important for the packaging of ShhN into COPII vesicles, we reconstituted vesicular release of ShhN in HEK293T cells (Fig. 1T). HEK293T cells transfected with 3xHA-tagged ShhN (ShhN-HA) were permeabilized by digitonin. After permeabilization, the semi-intact cells were washed with buffer to remove endogenous cytosolic proteins. Semi-intact cells were then incubated at 30 °C with rat liver cytosol (RLC), GTP, and an ATP regeneration system (ATPrS) in the presence or absence of a GTP hydrolysis defective mutant form of Sar1A, Sar1A (H79G). The vesicles released were then isolated by centrifugation and analyzed by immunoblotting (Fig. 1T). […] Deleting residues 33 to 49 (Fig. 1V) or deleting the CW motif (residues 33 to 39) in ShhN caused a significant reduction in the efficiency of packaging of ShhN into vesicles (Fig. 1W and quantification in Fig. 1X), while the abundance of ERGIC53 in transport vesicles was unchanged (Fig. 1Y). […]
as §4
(§6) Label-free quantitative mass spectrometry
(§7) Mass spectrometry was performed to identify the proteins involved in Shh secretion. […] Finally, the resulted peptides were analyzed by Mass Spectrometer. The tandem mass spectra were then subject to protein identification and label-free quantification by Proteome Discoverer. […]

Data set [2] has as its system packaging of ShhN-HA into transport vesicles. As to the kind of experiment: In vitro vesicle formation assay, packaging of ShhN-HA. Type of data set: cell-based. The protocol:
as §5, §4, §6, §7

Data set [3] deals with COPII-dependent ER export. The settings on record: cited from earlier work. The protocol:
To analyze whether the CW motif is important for the packaging of ShhN into COPII vesicles, we reconstituted vesicular release of ShhN in HEK293T cells (Fig. 1T). HEK293T cells transfected with 3xHA-tagged ShhN (ShhN-HA) were permeabilized by digitonin. After permeabilization, the semi-intact cells were washed with buffer to remove endogenous cytosolic proteins. Semi-intact cells were then incubated at 30 °C with rat liver cytosol (RLC), GTP, and an ATP regeneration system (ATPrS) in the presence or absence of a GTP hydrolysis defective mutant form of Sar1A, Sar1A (H79G). The vesicles released ...

A further data set concerns SURF4-Myc. The experiment in a line: Crosslinking co-IP of SURF4-Myc with HA-tagged cargo. Conditions: HEK293T, 2 mM DSP. Type of data set: binding, human. The protocol:
as §1
Immunoprecipitation, protein purification, and binding assay
Immunoprecipitation of HA-tagged ShhN was performed by incubating 200 µl of 0.5 mg/ml cell lysates from HEK293T cells transfected with ShhN- HA in HKT buffer with 10 μl of compact anti-HA agarose affinity beads with mixing at 4 °C overnight. After incubation, the beads were washed 4 times with 1 ml of HK buffer (100 mM KCl, 20 mM Hepes, pH 7.2), and the bound material was analyzed by Coomassie blue staining and immunoblotting.
as §2, §3

The next data set has as its system ShhN-SURF4 interaction. The experiment in a line: Heparin competition in GST pull down of SURF4-HA by ShhN^25-49-GST. Type of data set: binding, human. Conditions: n = 3. The protocol: as §1
Immunoprecipitation, protein purification, and binding assay […]
After incubation, the beads were washed 4 times with 1 ml of HK buffer (100 mM KCl, 20 mM Hepes, pH 7.2), and the bound material was analyzed by Coomassie blue staining and immunoblotting.
Binding assays between Myc- tagged SURF4 or Myc-tagged SURF4ED-AA and HA-tagged ShhN or ShhN∆33- 39 were performed by treating HEK293T cells co -transfected with plasmids encoding the indicated proteins in 1 × PBS containing 2 mM dithiobis[succinimidylpropionate] (DSP) and 2 mM CaCl2 at room temperature for 30 min, and then quenched with 25 mM Tris-HCl, pH 7.5. 200 µl of 0.5 mg/ml cell lysates were incubated with 10 μl of compact anti-HA agarose affinity beads with mixing at 4 °C overnight. After incubation, the beads were washed 4 times with 1 ml of HK buffer (100 mM KCl, 20 mM Hepes, pH 7.2), and the bound material was analyzed by immunoblotting. […]
as §3

In another data set the target is T2, CW peptides (KRRHPKKC) ( (human or mouse cDNA cloned)).
T2 construct: Cardin-Weintraub (CW) motif of Shh, residues 33 to 39 in ShhN; C-terminal cysteine printed after the KRRHPKK motif; In the pull-downs the peptide was covalently linked to thiopyridone Sepharose 6B; also called peptides corresponding to the CW motif; source: synthetic peptide
T2 peptide: KRRHPKKC
As to the kind of experiment: ITC; isothermal titration calorimetry of CW peptides with GST-SURF4^49-60 or GST. Conditions: both partners purified. A general note: ITC needs no label: the signal is the heat of the interaction.

“AAAHPAAC [CW(KR-AA), alanine substituted mutant (AAAHPAAC)]”: the “level of GST-SURF4^49-60 bound relative to CW peptides” value at GST-SURF4^49-60 is on record as “bound more efficiently to the wild-type CW sequence than an alanine substituted mutant”.
Regarding “Sar1A (H79G): GTP hydrolysis defective mutant form of Sar1A”, the “efficiency of packaging of ERGIC53 into transport vesicles” value in data set [1] is listed as “greatly reduced”. Also, the “efficiency of packaging of ShhN-HA into transport vesicles” value in data set [2] (HEK293Trex cells, SAR1A (H79G)) is “reduced the efficiency of packaging”. In addition, the “efficiency of packaging of ShhN-HA into transport vesicles” value in data set [2] (semi-intact HEK293T cells, rat liver cytosol, GTP, ATPrS, 0.5 µg Sar1A (H79G)) is reported as “greatly reduced”. Moreover, in data set [3], the “COPII-dependent ER export” value is “inhibits COPII-dependent ER export”; the “membrane association of SEC23A/B” value is given as “enhances membrane association of SEC23A/B”; the “vesicular capture of SEC22B and ERGIC53” value is on record as “abolishes the vesicular capture”; the “vesicular release of TGN46” value is recorded as “does not affect the vesicular release”.
With “ShhN-HA: 3xHA-tagged N-terminal fragment of Shh without the cholesterol modification”, in the data set with SURF4-Myc (n = 3), the “percentage of SURF4-Myc bound to ShhN-HA vs CW motif-depleted ShhN” value is reported as “significantly higher than the percentage of SURF4-Myc that bound to ShhN^Δ33-39-HA”. In the data set on SURF4-Myc (SURF4-Myc, HA beads), the “interaction with SURF4 vs IGF2” value is given as “more robustly than IGF2”.
For the molecule “VRRFRYPERPC [peptides corresponding to the first intracellular loop of Frizzled6 (…)]”, the “level of GST-SURF4^49-60 bound relative to CW peptides” value on GST-SURF4^49-60 is “significantly lower than that bound to the CW peptides”.
Regarding heparin, the “inhibition of the interaction between ShhN and SURF4” value in the data set with ShhN-SURF4 interaction (GST pull down with ShhN^25-49-GST and SURF4-HA lysate) is “inhibited the interaction between ShhN and SURF4 in a concentration-dependent manner”. Also, the “inhibition of the ShhN-SURF4 interaction at pH 6.0” value in the data set on ShhN-SURF4 interaction (pH 6.0) is listed as “still inhibits the ShhN-SURF4 interaction”.

B1: GST-SURF4^49-60 (domain or fragment, human, UniProt O15260 49-60, looked up)
chain: SEQRDYIDTTWN
notes: first luminal loop of SURF4, amino acids 49 to 60; also called GST-tagged SURF4^49-60; source: E. coli, purified
As usually defined, the Kd is the constant that tells how readily two partners part at equilibrium. Read a low Kd as higher affinity. The molecule B1 yielded a dissociation constant (Kd) with CW peptides (KRRHPKKC) of 2350 ± 90 nM.

(Values after paper PMC8931250, “A SURF4-to-proteoglycan relay mechanism that mediates the sorting and secretion of a tagged variant of sonic hedgehog” (Proceedings of the National Academy of Sciences of the …, 2022).)
